Measured values taken from paper PMC6780721, “GOBP1 Plays a Key Role in Sex Pheromones and Plant Volatiles Recognition in Yellow Peach Moth, Conogethes punctiferalis (Lepidoptera: Crambidae)” (Insects, 2019).
Where two headings read alike, the source gives them in different places.

How the values were obtained:
[1] = molecular target: GOBP1 (Conogethes punctiferalis, UniProt A0A2H4FXX2); assay: Fluorescence competitive binding assay with 1-NPN, recombinant GOBP1; conditions: for Intensity (%) GOBP1: 1-NPN fluorescence remaining in competitive binding, 2 µM protein, 2 µM 1-NPN, triplicates; for interaction with GOBP1 (in words): fluorescence binding assays, sex pheromones
GOBP1, sequence (A0A2H4FXX2 entry or part of it): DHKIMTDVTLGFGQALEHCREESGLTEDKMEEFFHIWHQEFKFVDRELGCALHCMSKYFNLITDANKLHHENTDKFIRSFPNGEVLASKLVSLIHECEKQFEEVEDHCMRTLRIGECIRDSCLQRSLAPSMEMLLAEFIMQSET
Description: (§1) Signal peptides were removed from complete ORF sequences of both genes and primers were designed, using antennal cDNA as the templates the GOBP1 and 2 were amplified and cloned using pEASY-T vector (TransGen Biotech, Beijing, China). The sense and antisense primers designed for GOBP1 and GOBP2. GOBP1 sense primers: 5′-[…]-3′ and antisense primer: 5′-[…]-3′ (BamH I and Hind III restriction sites are underlined); GOBP2 sense primer: 5′-[…]-3′ and antisense primer: 5′-[…]-3′ (EcoR I and Hind III restriction sites are underlined). The expected sequences were purified and cloned into the bacterial expression vector pET-30a (+) digested with the same enzymes. Then the plasmid was transformed into BL21 (DE3) competent cells (TransGen, Beijing, China) and the positive clone was inoculated in a liquid LB medium (4 L/protein) induced by 1 mM isopropyl-b-d-thiogalactoside (IPTG, Coollaber Science and Technology, Beijing, China) and placed in shaking incubator at 37 °C for 6 h. The induced bacterial cells were harvested from volume of 4 L liquid LB medium and centrifuged at 4 °C for 10 min (10,000 rpm). The pellets were subjected to ultrasonication and the recombinant GOBPs protein were purified by the Ni^2+-IDA column (His tagged) with a gradient concentration imidazole washing. The precipitate was resolved using 8 M carbamide and proteins were dialyzed in PBS buffer (pH 7.4) to remove the remaining chemical impurities from the protein. Purified protein concentrations of GOBP1 and GOBP2 was determined by the method of Bradford using BSA as standard The western blot method was performed to analyze the correct expression. […] The gel was sandwiched with a polyvinylidene fluoride (PVDF) membrane and sample in the gel was transferred to the PVDF (electrophoresis; 100 V, 200mA, 1 h). The film was washed four times using PBST (1% Tween-20 in 0.5 M Phosphate-buffered saline). 5% skim milk powder in PBST was used as blocking buffer. The PVDF membrane was incubated in primary antibody His (1:1000) and placed on shaker for overnight at 4 °C. The membrane was washed again using PBST and treated with second antibody sheep anti-rabbit antibody (1:5000) at 37 °C for 1 h. A final wash was given to the membrane and developed in ImageQuant LAS 4000 (GE, Pittsburgh, PA, USA) using western optimized HRP (horseradish peroxidase) reagent (Pierce, ELC kit, Thermoscientific, USA).
(§2) The fluorescence intensity was recorded on a FluoroMax-4 spectrophotometer (Horiba Scientific, Piscataway, NJ, USA) at room temperature using a 1 cm light path fluorimeter quartz cuvette. The fluorescent probe N-phenyl-1-naphthylamine (1-NPN) and all the tested chemicals were dissolved in HPLC purity methanol. The final concentration was prepared 2 mM. […] The fluorescence of 1-NPN was excited at 337 nm and emission spectra were recorded between […]. […] The GraphPad Prism 5 (GraphPad Software, Inc. San Diego, CA) was used to estimate the K1-NPN (KD of complex protein /1-NPN) values by nonlinear regression for a unique site of binding. It was assumed that the proteins were 100% active, with a stoichiometry of 1:1 (protein:ligand) at saturation. […] In the equation, [1-NPN] in the free concentration of 1-NPN, and K1-NPN is the dissociation constant of the complex protein/1-NPN.

[2] = molecular target: GOBP2 (Conogethes punctiferalis, UniProt A0A146JYY2); assay: Fluorescence competitive binding assay with 1-NPN, recombinant GOBP2; conditions: for Intensity (%) GOBP2: 1-NPN fluorescence remaining in competitive binding, 2 µM protein, 2 µM 1-NPN, triplicates
GOBP2, sequence (A0A146JYY2 entry or part of it): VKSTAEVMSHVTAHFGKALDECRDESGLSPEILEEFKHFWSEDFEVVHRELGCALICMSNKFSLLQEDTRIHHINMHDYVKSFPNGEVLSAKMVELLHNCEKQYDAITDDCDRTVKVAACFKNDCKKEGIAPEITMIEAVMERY
Description: as §1, §2

[3] = dissociation constant calculated from IC50: KD = [IC50]/(1+[1-NPN]/K1-NPN), pH 7.4, mean ± SD, read-out: KD (μM) GOBP1
[4] = ligand concentration halving initial 1-NPN fluorescence, pH 7.4, mean ± SD, read-out: IC50 (μM) GOBP1
[5] = dissociation constant calculated from IC50: KD = [IC50]/(1+[1-NPN]/K1-NPN), pH 7.4, mean ± SD, read-out: KD (μM) GOBP2
[6] = ligand concentration halving initial 1-NPN fluorescence, pH 7.4, mean ± SD, read-out: IC50 (μM) GOBP2

Row | SMILES | IC50 [1] [µM] | Kd [1] [µM] | Intensity (%) GOBP1 ([1]; pH 7.4, mean ± SD) [%] | IC50 [2] [µM] | Kd [2] [µM] | Intensity (%) GOBP2 ([2]; pH 7.4, mean ± SD) [%] | Kd [1, 3] [µM] | IC50 [1, 4] [µM] | Kd [2, 5] [µM] | IC50 [2, 6] [µM] | interaction with GOBP1 (in words) [1]
1 | C=CC(C)(O)CCC=C(C)C (centres unmarked) [Linalool] | 15.7 ± 1.61 | 6.7 ± 0.69 | 74.52 ± 2.42 | 44.8 ± 1.16 | 18.5 ± 0.48 | 91.86 ± 0.71 |  |  |  |  | 
2 | C=C1CC/C=C(\C)CC[C@@H]2[C@@H]1CC2(C)C [Caryophllene] |  |  | 68.98 ± 3.16 |  |  | 89.93 ± 2.15 | 3.88 ± 0.91 | 9.09 ± 2.42 | 8.67 ± 1.12 | 21 ± 2.1 | 
3 | C=C1CCC2CC1C2(C)C (stereo not drawn) [β-Pinene] | 9.94 ± 2.72 | 4.24 ± 0.69 | 66.21 ± 2.96 | 33.7 ± 3.29 | 13.9 ± 1.36 | 97.15 ± 3.95 |  |  |  |  | 
4 | CCCCCC=O [n-Hexanal] |  |  | 45.50 ± 4.58 |  |  | 96.44 ± 1.50 | 3.11 ± 0.71 | 7.31 ± 1.43 | 28.1 ± 0.62 | 68.1 ± 3.7 | 
5 | CCCCCCCCCCC=O [Undecanal] |  |  | 78.33 ± 2.89 |  |  | 98.12 ± 1.92 | 7.17 ± 0.67 | 16.8 ± 2.41 | 39.9 ± 9.7 | 96.7 ± 2.41 | 
6 | CCCCC/C=C/CCCCCCCCC=O [E10-16:Ald, (E)-10-hexadecenal] |  |  | 47.29 ± 7.52 |  |  | 84.05 ± 2.25 | 2.09 ± 0.45 | 4.9 ± 0.54 | 8.86 ± 0.93 | 21.4 ± 4.15 | can interact
7 | c1ccc(Nc2cccc3ccccc23)cc1 [1-NPN, N-phenyl-1-naphthylamine, reference compound] |  | 0.74 ± 0.41 |  |  | 0.7 ± 0.38 |  |  |  |  |  | 
8 | O=Cc1ccccc1 [Benzaldehyde] | 20.6 ± 1.31 | 8.79 ± 0.59 | 83.58 ± 6.61 | 77.1 ± 1.4 | 31.9 ± 3.03 | 94.76 ± 7.32 |  |  |  |  | 
9 | C=C(C)[C@H]1CC=C(C)CC1 [Limonene] |  |  | 43.27 ± 2.47 |  |  | 92.62 ± 1.21 | 1.54 ± 0.39 | 3.62 ± 0.89 | 14.7 ± 2.78 | 35.5 ± 1.14 | 
10 | CC1=CCC2CC1C2(C)C (stereo not drawn) [α-Pinene] | 11.1 ± 3.47 | 4.73 ± 0.48 | 64.96 ± 3.26 | 67.9 ± 4.66 | 28.1 ± 4.06 | 98.57 ± 1.13 |  |  |  |  | 
11 | CCCCC/C=C\CCCCCCCCC=O [Z10-16:Ald, (Z)-10-hexadecenal] |  |  | 20.88 ± 0.48 |  |  | 58.63 ± 2.72 | 1.2 ± 0.09 | 2.82 ± 0.44 | 3.58 ± 0.62 | 8.65 ± 1.87 | can interact
12 | CCCCCCCCCCCCCCCC=O [Hexadecanal] |  |  | 48.64 ± 4.35 |  |  | 67.94 ± 1.79 | 0.55 ± 0.08 | 1.29 ± 0.14 | 8.7 ± 0.74 | 21.1 ± 1.83 | 
13 | CC(C)=CCC/C(C)=C/CC/C(C)=C/CO [Farnesol] |  |  | 41.45 ± 2.51 |  |  | 55.64 ± 1.78 | 0.35 ± 0.04 | 0.83 ± 0.09 | 1.64 ± 0.03 | 3.98 ± 0.36 | 
14 | CCCCCCC=O [Heptanal] |  |  | 75.78 ± 5.17 |  |  | 96.80 ± 1.33 | 5.76 ± 0.64 | 13.5 ± 3.22 | 23.1 ± 4.68 | 56 ± 1.54 | 
15 | CCCCCCCCC=O [Nonanal] |  |  | 71.04 ± 8.80 |  |  | 96.99 ± 2.63 | 5.69 ± 0.36 | 13.3 ± 2.41 | 38.3 ± 1.09 | 92.8 ± 3.83 | 
16 | CCCCCCCCCCCCCCO [1-Tetradecanol] | 4.81 ± 0.72 | 2.05 ± 0.43 | 45.8 ± 0.56 | 54 ± 2.56 | 22.3 ± 1.89 | 85.52 ± 1.47 |  |  |  |  | 
17 | CCCCCCO [n-Hexanol] |  |  | 97.23 ± 0.89 |  |  | 94.24 ± 1.82 | 25.7 ± 0.43 | 60.4 ± 2.44 |  | 95.2 ± 1.68 | 
18 | CCCCCO [1-Amyl alcohol] |  |  | 95.2 ± 1.12 |  |  | 96.54 ± 1.39 | 14.3 ± 1.74 | 33.5 ± 1.02 |  | 98.7 ± 2.3 | 
19 | CC/C=C\CCO [Cis-3-hexen-1-ol] | 78.63 ± 0.23 | 33.5 ± 1.21 | 94.99 ± 1.78 | 51.3 ± 1.6 | 21.2 ± 1.14 | 96.93 ± 0.99 |  |  |  |  | 
